Data published in patent US20240199649A1 (Biosplice Therapeutics, Inc., priority 2022, published 2024).
pIC50: −log10 of the molar value.

Biological target: recombinant DYRK1A kinase (Homo sapiens (Human), UniProt Q13627)
Experiment: DYRK1A kinase assay (Ser/Thr 18 peptide Z-lyte FRET assay)
Type: biochemical
Conditions: DYRK1A 0.25 μg/mL, ATP 15 μM, Ser/Thr peptide 18 4 μM; one hour at room temperature; 11-point dose-response, duplicate
Outline: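 Z-lyte FRET assay on Ser/Thr 18 peptide, kinase activity read as coumarin/fluorescein emission ratio; compounds incubated 1 h at room temperature, then development reagent 1 h, in duplicate. Phosphorylated and unphosphorylated peptide served as controls; IC50 by non-linear regression of dose-response curves.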

Row | pIC50 | Molecule
1 | 8.89 | CNc1nc(N[C@@H]2CCN(C(C)=O)CC2(F)F)nn2ccc(-c3ccc4nnn(CC(F)F)c4n3)c12 [Compound 1029, (R)-1-(4-((5-(3-(2,2-Difluoroethyl)-3H-[1,2,3]triazolo[4,5-b]pyridin-5-yl)-4-(methylamino)pyrrolo[2,1-f][1,2,4]triazin-2-yl)amino)-3,3-difluoropiperidin-1-yl)ethan-1-one]
2 | 8.40 | CNc1nc(N[C@H]2CC[C@](C)(O)CC2)nn2ccc(-c3ccc4nnn(CC(F)(F)F)c4n3)c12 [Compound 1031, (1r,4r)-1-Methyl-4-((4-(methylamino)-5-(3-(2,2,2-trifluoroethyl)-3H-[1,2,3]triazolo[4,5-b]pyridin-5-yl)pyrrolo[2,1-f][1,2,4]triazin-2-yl)amino)cyclohexan-1-ol]
3 | 8.55 | CNc1nc(N[C@H]2CCN(C(C)=O)C[C@H]2F)nn2ccc(-c3ccc4nnn(CC(F)(F)F)c4n3)c12 [Compound 1032, 1-((3R,4S)-3-Fluoro-4-((4-(methylamino)-5-(3-(2,2,2-trifluoroethyl)-3H-[1,2,3]triazolo[4,5-b]pyridin-5-yl)pyrrolo[2,1-f][1,2,4]triazin-2-yl)amino)piperidin-1-yl)ethan-1-one]
4 | 8.70 | CNc1nc(N[C@H]2CCN(C3COC3)C[C@H]2F)nn2ccc(-c3ccc4nnn(CC(F)(F)F)c4n3)c12 [Compound 1033, N^2-((3R,4S)-3-Fluoro-1-(oxetan-3-yl)piperidin-4-yl)-N^4-methyl-5-(3-(2,2,2-trifluoroethyl)-3H-[1,2,3]triazolo[4,5-b]pyridin-5-yl)pyrrolo[2,1-f][1,2,4]triazine-2,4-diamine]
5 | 8.72 | CNc1nc(N[C@@H]2CCN(C)CC2(F)F)nn2ccc(-c3ccc4nnn(CC(F)(F)F)c4n3)c12 [Compound 1034, (R)—N^2-(3,3-Difluoro-1-methylpiperidin-4-yl)-N^4-methyl-5-(3-(2,2,2-trifluoroethyl)-3H-[1,2,3]triazolo[4,5-b]pyridin-5-yl)pyrrolo[2,1-f][1,2,4]triazine-2,4-diamine]
6 | 9.00 | CNc1nc(N[C@@H]2CCN(C3COC3)CC2(F)F)nn2ccc(-c3ccc4nnn(CC(F)(F)F)c4n3)c12 [Compound 1036, (R)—N^2-(3,3-Difluoro-1-(oxetan-3-yl)piperidin-4-yl)-N^4-methyl-5-(3-(2,2,2-trifluoroethyl)-3H-[1,2,3]triazolo[4,5-b]pyridin-5-yl)pyrrolo[2,1-f][1,2,4]triazine-2,4-diamine]
7 | 6.57 | N^4-Methyl-N^2-(1-(oxetan-3-yl)piperidin-4-yl)-5-(pyrazolo[1,5-a]pyridin-5-yl)pyrrolo[2,1-f][1,2,4]triazine-2,4-diamine [Compound 2]

Row | Molecule | pIC50
8 | N^2-(4,4-Difluorocyclohexyl)-N^4-methyl-5-(3-(2,2,2-trifluoroethyl)-3H-[1,2,3]triazolo[4,5-b]pyridin-5-yl)pyrrolo[2,1-f][1,2,4]triazine-2,4-diamine [Compound 1030] | 6.71
